PMC7366314 (ACS chemical biology, 2020)

Columns and labels:
[1] = Ex vivo mouse plasma stability testing; format: in vitro ADME; conditions: for plasma half-life, fold greater than the natural GLP-1 peptide: ex vivo mouse plasma, 10 μM, 37°C, LC/MS/MS
[2] = target: proteinase K (Parengyodontium album, UniProt P06873); test: Peptide proteolysis assay with proteinase K, intact peptide by LC/MS; conditions: 50 mM Tris HCl pH 7.4, LC/MS
[3] = test system: Leprdb mice; test: Anti-hyperglycemic effect in diabetic Leprdb; format: in vivo, mouse; conditions: single IP injection 10 nmol/kg
[4] = test system: B6 mice; test: Glucose tolerance test; format: in vivo, mouse; conditions: B6 mice fasted overnight, 10 nmol/kg IP, glucose 2 g/kg IP 30 min later

proteinase K, sequence (P06873 106-384): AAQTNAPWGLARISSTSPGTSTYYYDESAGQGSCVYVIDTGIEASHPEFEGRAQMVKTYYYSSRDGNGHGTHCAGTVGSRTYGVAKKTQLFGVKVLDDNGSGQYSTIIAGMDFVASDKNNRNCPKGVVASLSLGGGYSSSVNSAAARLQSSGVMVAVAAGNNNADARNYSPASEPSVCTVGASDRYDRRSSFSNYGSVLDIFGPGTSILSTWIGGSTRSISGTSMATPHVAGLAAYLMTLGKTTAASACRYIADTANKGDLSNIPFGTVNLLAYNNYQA

| SMILES | plasma half-life, fold greater than the natural GLP-1 peptide [1] | fold improvement of proteinase K half-life compared to control (wild-type) GLP-1 [2] | half-life at 10 µM ([1]; mouse, plasma (freshly drawn, lithium heparin)) | initial reduction in serum glucose ([3]; 15 min p=0.0032, 30 min p=0.0001 vs semaglutide) | fold reduction in glucose level compared to vehicle and wild-type GLP-1 ([3]; sustained for 12 hours, n=8) | time to euglycemia after the glucose bolus (GTT) [4] |
| --- | --- | --- | --- | --- | --- | --- |
| CC[C@H](C)[C@H](NC(=O)[C@H](Cc1ccccc1)NC(=O)[C@H](CCC(=O)O)NC(=O)[C@H](CCCCNC(=O)COCCOCCNC(=O)COCCOCCNC(=O)CC[C@H](NC(=O)CCCCCCCCCCCCCCCCC(=O)O)C(=O)O)NC(=O)[C@H](C)NC(=O)[C@H](C)NC(=O)[C@H](CCC(N)=O)NC(=O)CNC(=O)[C@H](CCC(=O)O)NC(=O)[C@H](CC(C)C)NC(=O)[C@H](Cc1ccc(O)cc1)NC(=O)[C@H](CO)NC(=O)[C@H](CO)NC(=O)[C@@H](NC(=O)[C@H](CC(=O)O)NC(=O)[C@H](CO)NC(=O)[C@@H](NC(=O)[C@H](Cc1ccccc1)NC(=O)[C@@H](NC(=O)CNC(=O)[C@H](CCC(=O)O)NC(=O)C(C)(C)NC(=O)[C@@H](N)Cc1cnc[nH]1)[C@@H](C)O)[C@@H](C)O)C(C)C)C(=O)N[C@@H](C)C(=O)N[C@@H](Cc1c[nH]c2ccccc12)C(=O)N[C@@H](CC(C)C)C(=O)N[C@H](C(=O)N[C@@H](CCCNC(=N)N)C(=O)NCC(=O)N[C@@H](CCCNC(=N)N)C(=O)NCC(=O)O)C(C)C [semaglutide, reference compound] | 12 fold | – | – | – | – | – |
| CC[C@H](C)[C@@H]1NC(=O)[C@H](Cc2ccccc2)NC(=O)[C@H](CCC(=O)O)NC(=O)[C@H](CCCCN)NC(=O)[C@H](C)NC(=O)[C@H](C)NC(=O)[C@@]2(CCCC=CCCCCCC[C@@](C)(NC(=O)[C@H](CC(=O)O)NC(=O)[C@H](CO)NC(=O)[C@@H](NC(=O)[C@H](Cc3ccccc3)NC(=O)[C@@H](NC(=O)CNC(=O)[C@H](CCC(=O)O)NC(=O)C(C)(C)NC(=O)[C@@H](N)Cc3c[nH]cn3)[C@@H](C)O)[C@@H](C)O)C(=O)N[C@@H](CO)C(=O)N[C@@H](CO)C(=O)N[C@@H](Cc3ccc(O)cc3)C(=O)N[C@@H](CC(C)C)C(=O)N[C@@H](CCC(=O)O)C(=O)NCC(=O)N2)CCCC=CCCCCCC[C@@](C)(C(=O)N[C@@H](Cc2c[nH]c3ccccc23)C(=O)N[C@@H](CC(C)C)C(=O)N[C@H](C(=O)N[C@@H](CCCCN)C(=O)NCC(=O)N[C@@H](CCCNC(=N)N)C(N)=O)C(C)C)NC1=O [SAH-GLP-1-A8J(16,23,30)] | 23 fold | over 24 fold | 5.33 h | more rapid, initial reduction in serum glucose compared to semaglutide | 2–2.5 fold | ≤ 60 min |
